From patent publication US10196357B2, “Biaryl compositions and methods for modulating a kinase cascade” (Athenex, Inc., priority 2007, dated 2019)

Key:
[1] = test system: K562R (Gleevec resistant CML); assay: growth inhibition, K562R; assay type: cell-based, Human
[2] = test system: Jurkat (Adult T cell leukemia); assay: growth inhibition, Jurkat; assay type: cell-based, Human
Ba/F3 (IL-3 induced) = assay: MTT growth inhibition, Ba/F3 + IL-3; assay type: cell-based; conditions: 96 hrs, read-out: GI50
Ba/F3 + WT BCR-Abl = assay: MTT growth inhibition, Ba/F3 + WT BCR-Abl; assay type: cell-based; conditions: 96 hrs
Excerpt: (§1) Cultures of Ba/F3 cells were also transfected to express wild-type (WT) Bcr-Abl, E255K mutation of Bcr-Abl, or T315I mutation of Bcr-Abl and cultured in 96-well plates in complete media without IL-3. The Ba/F3 cell line is rendered Gleevec resistant when the mutation in the Bcr/Abl tyrosine kinase […] is present. […] All assays are in triplicate.

[3] = test system: Ba/F3 + BCR-Abl T315I mutant; assay: MTT growth inhibition, Ba/F3 + BCR-Abl T315I; assay type: cell-based; conditions: 96 hrs
Excerpt: as §1

LN-18 = assay: brain tumor cell growth inhibition, LN-18; assay type: cell-based, Human; conditions: LN-18, glioblastoma; glioma; read-out: IC50 (title: GI50)
786-O = assay: renal tumor cell growth inhibition, 786-O; assay type: cell-based, Human; conditions: renal cell adenocarcinoma
Procedure: (§2) These GI50s were determined using standard tumor growth inhibition assays, similar to those described in detail in this Example 7.

ACHN = assay: renal tumor cell growth inhibition, ACHN; assay type: cell-based, Human; conditions: renal cell adenocarcinoma
Procedure: as §2

HCT116 = assay: MTT growth inhibition, Dasatinib-resistant HCT116; assay type: cell-based, human; conditions: HCT116, 8.0×10^3 cells/well, […] FBS, 78 Hr
Procedure: (§6) Cell proliferation/growth inhibition was assessed using MTT colorimetric assay.
(§7) On Day 3, 10 μL MTT (5 mg/mL) was added to each well. Cells were then incubated in the presence of MTT for 4 hours at 37° C., appropriate CO2 conditions. After this incubation period, 90 μL 10% SDS(+HCl) was added to each well to lyse cells and solubilize formazan. Cells were then incubated overnight at 37° C., appropriate CO2 conditions.
(§8) The OD570 was measured using microplate reader. Growth inhibition curves and EC50/IC50 was determined using GraphPad Prism 4 statistical software.

[4] = test system: Src-Y416 autophosphorylation; assay: intracellular phosphorylation, Src autophosphorylation; assay type: cell-based; conditions: HT29 and c-Src527F/NIH-3T3 cells, 0.2×-25× GI50
Procedure: (§3) HT29 (colon cancer) and c-Src527F/NIH-3T3 (Src transformed) cell lines were treated with KX2-391 or with AstraZeneca's ATP competitive Src inhibitor AZ28. AZ28 serves as a positive comparator to show what a validated Src inhibitor should do in these assays. After treatment with compound, cells were lysed, subjected to PAGE and probed with a battery of antibodies. […] In addition, off-target protein phosphorylation was also investigated. Further, induction of apoptosis was evaluated via Caspase 3 cleavage. Multiple doses of each compound were tested because the trends in response to increasing drug concentration are the most reliable indicator of activity.
(§4) The same range of multiples of the GI50 for AZ28 in these two cell lines was run as a comparison.

FAK Y397 = assay: FAK autophosphorylation in cells; assay type: cell-based; conditions: c-Src527F/NIH3T3 cells
Procedure: as §3, §4
FAK Y397 is mainly a FAK autophosphorylation site and only a poor Src transphorylation site. AZ28 is […] a potent FAK inhibitor (see isolated enzyme data in Table 8). However, no inhibition of FAK autophosphorylation in c-Src527F/NIH3T3 cells is seen with KX-391.

[5] = test system: EGFR tyrosine kinase autophosphorylation; assay: EGFR tyrosine kinase autophosphorylation in cells; assay type: cell-based; conditions: tumor cells, FIG. 9, EGF Y845
Procedure: as §3, §4
This site is not a direct Src phosphorylation site.

Lck Y405 = assay: whole cell phosphorylation, Lck; assay type: cell-based; conditions: whole cells
H460 = assay: MTT growth inhibition, Dasatinib-resistant H460; conditions: H460, 8.0×10^3 cells/well, […] FBS, 78 Hr
Procedure: as §6, §7, §8

Abl(h) = Abl(h) (Homo sapiens, UniProt P00519); assay: isolated kinase activity, Abl; assay type: biochemical; conditions: compound @ 10 μM
Excerpt: (§5) Table 8 illustrates percent activity of isolated kinases in the presence of the AstraZeneca ATP-competitive inhibitor (KX2-328, AZ-28) or KX2-391 relative to control (untreated) isolated kinases.

CHK1(h) = CHK1(h) (Homo sapiens, UniProt O14757); assay: isolated kinase activity, CHK1; assay type: biochemical; conditions: compound @ 10 μM
CHK1(h), sequence (O14757 whole entry): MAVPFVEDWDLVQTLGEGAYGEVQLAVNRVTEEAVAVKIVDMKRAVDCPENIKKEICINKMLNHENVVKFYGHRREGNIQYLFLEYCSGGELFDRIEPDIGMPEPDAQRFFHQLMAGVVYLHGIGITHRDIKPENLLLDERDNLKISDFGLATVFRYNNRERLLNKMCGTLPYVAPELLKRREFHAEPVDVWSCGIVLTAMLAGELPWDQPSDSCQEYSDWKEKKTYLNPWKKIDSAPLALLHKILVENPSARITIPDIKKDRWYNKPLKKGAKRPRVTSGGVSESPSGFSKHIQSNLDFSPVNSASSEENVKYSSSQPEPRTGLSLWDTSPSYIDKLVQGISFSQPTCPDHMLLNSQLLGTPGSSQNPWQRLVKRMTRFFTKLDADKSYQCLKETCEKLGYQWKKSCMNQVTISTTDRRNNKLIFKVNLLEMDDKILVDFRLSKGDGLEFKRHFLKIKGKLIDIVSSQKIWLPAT
Excerpt: as §5

Fyn(h) = Fyn(h) (Homo sapiens, UniProt P06241); assay: isolated kinase activity, Fyn; assay type: biochemical; conditions: compound @ 10 μM
Fyn(h), sequence (P06241 whole entry): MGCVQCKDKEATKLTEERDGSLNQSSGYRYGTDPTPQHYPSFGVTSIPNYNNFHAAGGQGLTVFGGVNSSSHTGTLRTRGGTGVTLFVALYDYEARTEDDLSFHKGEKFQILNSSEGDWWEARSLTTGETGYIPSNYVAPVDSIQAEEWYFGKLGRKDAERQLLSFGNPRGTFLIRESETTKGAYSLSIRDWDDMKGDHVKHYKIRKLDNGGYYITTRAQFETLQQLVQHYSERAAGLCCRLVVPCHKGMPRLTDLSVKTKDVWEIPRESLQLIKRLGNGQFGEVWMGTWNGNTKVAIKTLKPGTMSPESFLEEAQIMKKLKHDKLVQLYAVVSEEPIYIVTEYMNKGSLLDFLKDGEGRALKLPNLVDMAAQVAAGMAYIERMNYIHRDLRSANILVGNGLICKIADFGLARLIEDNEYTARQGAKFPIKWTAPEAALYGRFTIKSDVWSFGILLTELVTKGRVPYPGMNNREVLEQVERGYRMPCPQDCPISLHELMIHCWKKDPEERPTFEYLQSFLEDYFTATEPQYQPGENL
Excerpt: as §5

IR(h) = IR(h) (Homo sapiens, UniProt P06213); assay: isolated kinase activity, IR; assay type: biochemical; conditions: compound @ 10 μM
IR(h), sequence (P06213 28-1382): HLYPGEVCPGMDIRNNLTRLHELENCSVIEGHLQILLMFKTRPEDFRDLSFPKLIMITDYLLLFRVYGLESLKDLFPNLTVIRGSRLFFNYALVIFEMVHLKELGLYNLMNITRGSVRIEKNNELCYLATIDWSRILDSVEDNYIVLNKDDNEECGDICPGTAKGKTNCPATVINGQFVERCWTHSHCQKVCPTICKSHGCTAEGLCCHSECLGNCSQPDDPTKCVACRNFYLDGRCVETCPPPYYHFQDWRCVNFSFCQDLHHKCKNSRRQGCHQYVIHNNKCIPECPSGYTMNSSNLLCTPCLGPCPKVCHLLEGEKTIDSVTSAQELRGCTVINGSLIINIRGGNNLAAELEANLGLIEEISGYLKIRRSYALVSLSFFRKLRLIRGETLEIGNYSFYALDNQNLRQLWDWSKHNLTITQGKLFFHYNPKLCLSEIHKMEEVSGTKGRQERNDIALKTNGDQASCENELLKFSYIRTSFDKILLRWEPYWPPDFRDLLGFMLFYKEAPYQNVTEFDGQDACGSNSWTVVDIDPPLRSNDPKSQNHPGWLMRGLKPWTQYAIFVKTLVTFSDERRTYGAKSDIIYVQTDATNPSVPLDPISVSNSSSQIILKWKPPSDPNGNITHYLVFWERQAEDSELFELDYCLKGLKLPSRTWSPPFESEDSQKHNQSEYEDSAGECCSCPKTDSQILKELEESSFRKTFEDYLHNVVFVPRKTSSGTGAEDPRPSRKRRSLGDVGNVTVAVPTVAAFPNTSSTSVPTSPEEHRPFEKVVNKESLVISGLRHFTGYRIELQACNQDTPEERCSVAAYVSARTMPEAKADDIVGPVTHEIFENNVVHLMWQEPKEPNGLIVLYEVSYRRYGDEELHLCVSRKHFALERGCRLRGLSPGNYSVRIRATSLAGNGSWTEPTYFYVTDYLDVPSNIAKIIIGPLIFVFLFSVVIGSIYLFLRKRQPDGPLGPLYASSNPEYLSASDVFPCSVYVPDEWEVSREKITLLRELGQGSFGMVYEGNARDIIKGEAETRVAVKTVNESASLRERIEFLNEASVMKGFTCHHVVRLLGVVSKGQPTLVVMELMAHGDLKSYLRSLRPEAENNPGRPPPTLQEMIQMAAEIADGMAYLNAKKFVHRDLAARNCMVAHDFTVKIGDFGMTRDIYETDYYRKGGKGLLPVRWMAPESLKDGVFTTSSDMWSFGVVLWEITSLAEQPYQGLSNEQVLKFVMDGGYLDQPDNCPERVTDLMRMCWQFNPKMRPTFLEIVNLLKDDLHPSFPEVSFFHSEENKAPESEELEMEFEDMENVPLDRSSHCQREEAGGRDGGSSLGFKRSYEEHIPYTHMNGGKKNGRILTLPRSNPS
Excerpt: as §5

Pyk2(h) = Pyk2(h) (Homo sapiens, UniProt Q14289); assay: isolated kinase activity, Pyk2; assay type: biochemical; conditions: compound @ 10 μM
Pyk2(h), sequence (Q14289 whole entry): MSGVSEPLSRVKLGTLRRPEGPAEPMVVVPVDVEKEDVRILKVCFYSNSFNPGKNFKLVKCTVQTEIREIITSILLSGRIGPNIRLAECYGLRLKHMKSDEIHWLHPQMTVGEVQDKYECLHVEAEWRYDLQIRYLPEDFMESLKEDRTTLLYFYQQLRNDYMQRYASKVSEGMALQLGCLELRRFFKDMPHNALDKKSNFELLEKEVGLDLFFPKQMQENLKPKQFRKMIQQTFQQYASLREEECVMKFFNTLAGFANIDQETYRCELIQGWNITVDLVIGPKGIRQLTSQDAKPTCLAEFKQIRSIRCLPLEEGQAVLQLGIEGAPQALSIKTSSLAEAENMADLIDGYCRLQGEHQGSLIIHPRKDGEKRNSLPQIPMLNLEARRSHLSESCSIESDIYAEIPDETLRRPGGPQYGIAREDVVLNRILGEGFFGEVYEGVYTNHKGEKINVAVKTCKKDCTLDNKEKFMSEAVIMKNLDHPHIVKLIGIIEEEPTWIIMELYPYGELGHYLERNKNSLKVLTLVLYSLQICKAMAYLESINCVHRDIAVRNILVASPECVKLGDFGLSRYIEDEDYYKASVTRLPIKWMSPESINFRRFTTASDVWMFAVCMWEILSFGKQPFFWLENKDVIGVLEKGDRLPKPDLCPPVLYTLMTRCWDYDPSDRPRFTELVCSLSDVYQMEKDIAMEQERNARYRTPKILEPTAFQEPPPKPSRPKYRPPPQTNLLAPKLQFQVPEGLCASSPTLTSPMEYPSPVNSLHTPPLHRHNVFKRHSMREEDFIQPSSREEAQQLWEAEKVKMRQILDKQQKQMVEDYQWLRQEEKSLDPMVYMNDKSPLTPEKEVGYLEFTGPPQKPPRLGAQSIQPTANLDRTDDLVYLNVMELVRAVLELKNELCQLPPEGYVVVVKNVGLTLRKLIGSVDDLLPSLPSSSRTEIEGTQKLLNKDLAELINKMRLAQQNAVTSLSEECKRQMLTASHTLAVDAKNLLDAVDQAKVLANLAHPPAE
Excerpt: as §5

Yes(h) = Yes(h) (Homo sapiens, UniProt P07947); assay: isolated kinase activity, Yes; assay type: biochemical; conditions: compound @ 10 μM
Excerpt: as §5

ZAP-70(h) = ZAP-70(h) (Homo sapiens, UniProt P43403); assay: isolated kinase activity, ZAP-70; assay type: biochemical; conditions: compound @ 10 μM
ZAP-70(h), sequence (P43403 whole entry): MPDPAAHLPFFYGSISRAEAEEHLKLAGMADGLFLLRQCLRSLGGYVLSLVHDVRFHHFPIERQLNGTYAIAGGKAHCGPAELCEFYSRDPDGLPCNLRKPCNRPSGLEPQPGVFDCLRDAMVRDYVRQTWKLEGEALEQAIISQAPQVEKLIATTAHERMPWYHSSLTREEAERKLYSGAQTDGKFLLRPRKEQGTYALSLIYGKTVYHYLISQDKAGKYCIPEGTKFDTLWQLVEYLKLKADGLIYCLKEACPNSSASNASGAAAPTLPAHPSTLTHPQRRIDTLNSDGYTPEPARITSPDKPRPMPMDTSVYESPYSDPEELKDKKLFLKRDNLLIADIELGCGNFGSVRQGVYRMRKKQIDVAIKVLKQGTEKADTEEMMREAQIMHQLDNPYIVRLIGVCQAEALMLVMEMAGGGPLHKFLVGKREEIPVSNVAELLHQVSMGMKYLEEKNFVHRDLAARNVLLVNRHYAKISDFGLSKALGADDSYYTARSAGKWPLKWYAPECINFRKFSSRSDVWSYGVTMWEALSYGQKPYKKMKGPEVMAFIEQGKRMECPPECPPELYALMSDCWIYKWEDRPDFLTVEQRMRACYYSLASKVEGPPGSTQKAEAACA
Excerpt: as §5

isolated FAK = isolated FAK (Homo sapiens, UniProt Q05397); assay: titration against isolated FAK; assay type: biochemical; conditions: titration data
isolated FAK, sequence (Q05397 whole entry): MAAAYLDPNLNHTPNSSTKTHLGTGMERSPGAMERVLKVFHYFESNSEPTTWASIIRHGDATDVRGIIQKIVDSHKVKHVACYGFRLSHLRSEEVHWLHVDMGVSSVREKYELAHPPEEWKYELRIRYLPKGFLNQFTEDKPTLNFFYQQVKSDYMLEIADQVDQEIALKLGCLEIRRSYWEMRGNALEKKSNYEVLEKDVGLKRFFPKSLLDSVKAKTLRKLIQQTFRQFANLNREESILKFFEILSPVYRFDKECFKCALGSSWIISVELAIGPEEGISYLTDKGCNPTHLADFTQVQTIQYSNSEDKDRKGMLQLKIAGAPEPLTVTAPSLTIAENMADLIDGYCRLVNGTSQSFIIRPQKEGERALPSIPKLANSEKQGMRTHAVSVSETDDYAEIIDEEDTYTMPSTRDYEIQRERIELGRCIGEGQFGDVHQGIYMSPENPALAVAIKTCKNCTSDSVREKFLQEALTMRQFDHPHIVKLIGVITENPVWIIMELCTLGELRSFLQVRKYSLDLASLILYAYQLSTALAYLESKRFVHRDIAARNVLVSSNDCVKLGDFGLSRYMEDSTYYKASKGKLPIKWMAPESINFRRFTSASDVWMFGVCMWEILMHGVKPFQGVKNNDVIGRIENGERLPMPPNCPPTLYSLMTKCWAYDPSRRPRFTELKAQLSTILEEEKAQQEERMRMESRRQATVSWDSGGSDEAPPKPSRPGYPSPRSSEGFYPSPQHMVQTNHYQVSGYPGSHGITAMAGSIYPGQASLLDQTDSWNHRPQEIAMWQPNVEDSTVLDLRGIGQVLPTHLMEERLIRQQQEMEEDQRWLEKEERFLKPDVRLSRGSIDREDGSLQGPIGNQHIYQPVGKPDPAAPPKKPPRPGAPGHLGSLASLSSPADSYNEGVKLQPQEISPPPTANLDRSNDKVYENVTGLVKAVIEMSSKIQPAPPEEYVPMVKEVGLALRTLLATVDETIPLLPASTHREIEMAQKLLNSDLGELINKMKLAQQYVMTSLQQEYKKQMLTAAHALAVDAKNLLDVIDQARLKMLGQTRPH

Caspase-3 cleavage = assay: induction of apoptosis via Caspase 3 cleavage; assay type: cell-based; conditions: HT29 and c-Src527F/NIH-3T3 cells
Procedure: as §3, §4
Cleavage of Caspase-3 is a good measure of induction of apoptosis.

## O=C(Cc1ccc(-c2ccc(OCCN3CCOCC3)cc2)cn1)NCc1ccccc1 [KXO1]
[1]
  GI50: 0.64 nM
[2]
  GI50: 10 nM
Ba/F3 (IL-3 induced)
  GI50: 3.5 nM
Ba/F3 + WT BCR-Abl
  GI50: 85 nM
[3]
  GI50: 35 nM
LN-18
  IC50: 14.5 nM
786-O
  GI50: 378 nM
ACHN
  GI50: 33.2 nM
HCT116
  IC50: 31 nM
  IC80: 106 nM
  IC90: 195 nM
[4]
  Src-Y416 autophosphorylation: potent inhibitor
FAK Y397
  FAK Y397 autophosphorylation: no inhibition
[5]
  EGFR tyrosine kinase autophosphorylation: not inhibited
[5]; listed as KX-391
  EGFR tyrosine kinase autophosphorylation: less active
Lck Y405
  phosphorylation of Lck Y405: not inhibited
H460
  IC50: 51 nM
  IC80: 105 nM
  IC90: 162 nM

## O=C(Cc1ccc(-c2ccc(OCCN3CCOCC3)cc2)cn1)NCc1ccccc1 [KX2-391]
Abl(h)
  percent activity of isolated kinase relative to control: 120%
CHK1(h)
  percent activity of isolated kinase relative to control: 105%
Fyn(h)
  percent activity of isolated kinase relative to control: 85%
IR(h)
  percent activity of isolated kinase relative to control: 112%
Pyk2(h)
  percent activity of isolated kinase relative to control: 97%
Yes(h)
  percent activity of isolated kinase relative to control: 92%
ZAP-70(h)
  percent activity of isolated kinase relative to control: 108%
Isolated FAK
  IC50: > 48000 nM
Caspase-3 cleavage
  induction of apoptosis (Caspase-3 cleavage): very effective in inducing apoptosis
